Test results from US8063095B2, “IAP BIR domain binding compounds” (Pharmascience Inc., priority 2005, dated 2011).
pEC50, pIC50, pKi: −log10 of the molar value.

How the values were obtained:
[1] = molecular target: T1, XIAP L-Bir2-Bir3 (GST-XIAP Linker Bir2Bir3RING fusion protein) (Homo sapiens, UniProt P98170); test: Caspase de-repression assay using cellular extracts (apoptosome), L-Bir2-Bir3 XIAP; assay type: biochemical; conditions: 293 cell S100 extract; effective concentration to achieve 50% of activation
T1 construct: made in house; host or cells: E. coli DH5-alpha
T1 sequence (P98170 93-497): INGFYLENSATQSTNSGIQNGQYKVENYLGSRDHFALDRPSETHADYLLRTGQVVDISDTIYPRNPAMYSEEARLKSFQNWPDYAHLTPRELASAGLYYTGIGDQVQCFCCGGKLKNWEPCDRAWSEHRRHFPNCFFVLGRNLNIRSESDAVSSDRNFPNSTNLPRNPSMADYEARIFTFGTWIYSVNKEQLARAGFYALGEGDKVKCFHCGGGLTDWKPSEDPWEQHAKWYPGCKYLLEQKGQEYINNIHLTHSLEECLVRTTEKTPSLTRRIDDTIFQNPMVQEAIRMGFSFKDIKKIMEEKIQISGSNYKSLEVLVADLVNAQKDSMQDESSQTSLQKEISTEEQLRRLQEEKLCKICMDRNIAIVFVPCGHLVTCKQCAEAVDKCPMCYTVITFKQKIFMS
Method: GST-linker BIR2BIR3Ring: XIAP coding sequence from amino acids 93-497 cloned into PGex4T1 via BamH1 and XhoI. Amino acids 93-497 were amplified from full length XIAP in pGex4t3, using the primers: […] and GCTGCATGTGTGTCAGAGG, using standard PCR conditions. The PCR fragment was TA cloned into pCR-2.1 (invitrogen). Linker BIR2BIR3Ring was subcloned into pGex4T1 by BamHI/XhoI digestion. The plasmid was transformed into E. coli DH5α for use in protein expression and purification. […]
100 ug of 293 cell S100 extract and 0.25 uM-2 uM of GST-XIAP fusion protein (XIAP-Bir3RING, XIAP-Linker Bir2Bir3RING, or full-length XIAP) were co-incubated with serial dilutions of compound (40 uM-5 pM). Caspases present in the extracts were activated by adding 1 mM dATP, 0.1 mM ALLN, 133 ug Cytochrome C (final concentrations), and incubating at 37° C. for 25 minutes. All reactions and dilutions used S100 buffer (50 mM Pipes pH 7.0, 50 mM KCl, 0.5 mM EGTA pH 8.0, 2 mM MgCl2 supplemented with 1/1000 dilutions of 2 mg/ml Cytochalisin B, 2 mg/ml Chymotstatin, Leupeptin, Pepstatin, Antipain, 0.1M PMSF, 1M DTT). Final reaction volume was 30 ul. Caspase-3 activity was measured by overlaying 30 ul of a 0.4 mM DEVD-AMC solution. released AMC cleavage was measured in a TECAN spectrophotometer at 360 nm excitation and 444 nm emission, on a kinetic cycle of 1 hour with readings taken every 5 minutes. Caspase activity was calculated as Vo of AMC fluorescence/sec. Caspase de-repression by our compounds was compared to fully activated extract and activated extract repressed by the presence of XIAP fusion protein.

[2] = molecular target: T2, XIAP bir3 domain (GST-XIAP BIR3RING) (Homo sapiens, UniProt P98170); test: Fluorescence polarization-based competition assay, XIAP; assay type: binding; conditions: Ki calculated from displacement of fluorescent probe; read-out: Fluorescent polarization (FP) assay Xiap
T2 construct: made in house; host or cells: E. coli DH5-alpha
T2 sequence (P98170 246-497): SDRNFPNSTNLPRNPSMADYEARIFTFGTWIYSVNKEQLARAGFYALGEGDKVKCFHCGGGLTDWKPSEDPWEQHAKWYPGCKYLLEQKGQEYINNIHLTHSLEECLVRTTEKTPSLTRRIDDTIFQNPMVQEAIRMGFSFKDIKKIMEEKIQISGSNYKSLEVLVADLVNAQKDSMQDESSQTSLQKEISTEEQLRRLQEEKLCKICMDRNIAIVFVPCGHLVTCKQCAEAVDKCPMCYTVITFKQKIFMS
Method: GST-XIAP BIR3RING: XIAP coding sequence amino acids 246-497 cloned into PGEX2T1 via BamH1 and AVA I. The plasmid was transformed into E. coli DH5a for use in protein expression and purification.
(§1) A fluorescent peptide probe, Fmoc-Ala-Val-Pro-Phe-Tyr(t-Bu)-Leu-Pro-[…]-Gly-OH was prepared using standard Fmoc chemistry on 2-chlorotrityl chloride resin (Int. J. Pept. Prot. Res. 38:555-561, 1991). Cleavage from the resin was performed using 20% acetic acid in dichloromehane (DCM), which left the side chain still blocked. The C-terminal protected carboxylic acid was coupled to 4′-(aminomethy)fluorescein (Molecular Probes, A-1351; Eugene, Oreg.) using excess diisopropylcarbodiimide (DIC) in dimethylformamide (DMF) at room temperature and was purified by silica gel chromatography (10% methanol in DCM). The N-terminal Fmoc protecting group was removed using piperidine (20%) in DMF, and purified by silica gel chromatography (20% methanol in DCM, 0.5% HOAc). Finally, the t-butyl side chain protective groups were removed using 95% trifluoroacetic acid containing 2.5% water and 2.5% triisopropyl silane.
(§2) For all assays, the fluorescence and fluorescence-polarization was evaluated using a Tecan Polarion instrument with the excitation filter set at 485 nm and the emission filter set at 535 nm. For each assay, the concentration of the target protein was first establish by titration of the selected protein in order to produce a linear dose-response signal when incubated alone in the presence of the fluorescent probe. Upon establishing these conditions, the compounds potency (IC50) and selectivity, was assessed in the presence of a fix defined amount of target protein and fluorescent probe and a 10 point serial dilution of the selected compounds. For each IC50 curve, the assays were run as followed: 25 ul/well of diluted compound in 50 mM MES buffer pH 6.5 were added into a black 96 well plate then 25 ul/well of bovine serum albumin (BSA) at 0.5 mg/ml in 50 mM MES pH 6.5. Auto-fluorescence for each compound was first assessed by performing a reading of the compound/BSA solution alone. Then 25 ul of the fluorescein probe diluted into 50 mM MES containing 0.05 mg/ml BSA were added and a reading to detect quenching of fluorescein signal done. Finally 25 ul/well of the target or control protein (GST-BIRs) diluted at the appropriate concentration in 50 mM MES containing 0.05 mg/ml BSA were added and the fluorescence polarization evaluated.
(§3) For each assay the relative polarization-fluorescence units were plotted against the final concentrations of compound and the IC50 calculated using the Grad pad prism software and/or Cambridge soft. The ki value were derived from the calculated IC50 value as described above and according to the equation described in Nikolovska-Coleska, Z. (2004) Anal Biochem 332, 261-273.

[3] = molecular target: T3, cIAP-1 bir3 domain (GST-HIAP2 (cIAP-1) BIR3) (Homo sapiens, UniProt Q13490); test: Fluorescence polarization-based competition assay, cIAP-1; assay type: binding; conditions: Ki calculated from displacement of fluorescent probe; read-out: Fluorescent polarization (FP) assay cIAP-1
T3 construct: made in house; host or cells: E. coli DH5-alpha
T3 sequence (Q13490 251-363): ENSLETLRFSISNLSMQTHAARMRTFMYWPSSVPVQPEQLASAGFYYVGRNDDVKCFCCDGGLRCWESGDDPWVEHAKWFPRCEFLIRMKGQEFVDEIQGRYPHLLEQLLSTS
Method: GST-HIAP2 (cIAP-1) BIR3: HIAP2 coding sequence from amino acids 251-363 cloned into PGex4T3 via BamH1 and XhoI. The plasmid was transformed into E. coli DH5α for use in protein expression and purification.
as §1, §2, §3

[4] = molecular target: T4, cIAP-2 bir3 domain (GST-HIAP1(cIAP-2) BIR3) (Homo sapiens, UniProt Q13489); test: Fluorescence polarization-based competition assay, cIAP-2; assay type: binding; conditions: Ki calculated from displacement of fluorescent probe; read-out: Fluorescent polarization (FP) assay cIAP-2
T4 construct: made in house; host or cells: E. coli DH5-alpha
T4 sequence (Q13489 236-349): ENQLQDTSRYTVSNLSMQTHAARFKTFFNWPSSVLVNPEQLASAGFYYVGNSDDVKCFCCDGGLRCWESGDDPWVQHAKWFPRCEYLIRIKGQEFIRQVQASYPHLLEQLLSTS
Method: GST-HIAP1(cIAP-2) BIR3: HIAP1 coding sequence from amino acids 236-349, cloned into PGex4T3 via BamH1 and XhoI. The plasmid was transformed into E. coli DH5α for use in protein expression and purification.
as §1, §2, §3

[5] = test system: MDA-MB-231 (breast) cancer cells; test: Cell viability (MTT) assay, MDA cells; conditions: Homo sapiens, MDA-MB-231, 72 h, MTT based assay
[6] = test system: SKOV-3 (ovarian) cancer cells; test: Cell viability (MTT) assay, SKOV3 cells; conditions: 72 hours, MTT based assay; compounds added either alone or in presence of 1-3 ng/ml of TRAIL
Method: MDA-MD-231 (breast) and SKOV-3 (ovarian) cancer cells were cultured in RPMI1640 media supplemented with 10% FBS and 100 units/mL of Penicillin and Steptomycin.
Viability assays were done on a number of cells including MDA-MB-231, SKOV-3, H460, PC3, HCT-116, and SW480 cells. Cells were seeded in 96 well plates at a respective density of 5000 and 2000 cells per well and incubated at 37° C. in presence of 5% CO2 for 24 hours. Selected compounds were diluted into the media at various concentration ranging from 0.01 uM up to 100 uM. Diluted compounds were added onto the MDA-MB-231 cells. For the MDA-MB-231 SKOV3, H460, PC3, HCT-116, and SW480 cells, the compounds were added either alone or in presence of 1-3 ng/ml of TRAIL. After 72 hours cellular viability was evaluated by MTT based assays.

[7] = test system: HCT-116 tumors; test: Combination anti-cancer therapy in vivo (HCT-116 tumors, with mitomycin-C); conditions: HCT-116 tumors in female nude mice
Method: Female nude mice received […] HCT-116 subdermally on the right flank. On day 26, when tumors were […], animals were assigned to groups using a balanced design based on tumor size. At that time mitomycin-C and Compound 23 treatment was initated. Mitomycin-C was administered ip at 1 mg/kg, Monday through Friday for two weeks. Compound 23 was given iv at 1 or 5 mg/kg five times per week for the duration of the experiment. Tumor measurements were taken twice weekly.

Row | pIC50 [1] | pKi [2] | pKi [3] | pKi [4] | pEC50 [5] | pEC50 [6] | Compound | anti-tumor effect at 5 mg/kg compared to the 1 mg/kg dose ([7]; 5 mg/kg iv in combination with mitomycin-C ip 1 mg/kg) | anti-tumor effect in combination with mitomycin-C ([7]; iv at 1 or 5 mg/kg five times per week, mitomycin-C ip 1 mg/kg)
1 | ≥ 7.00 | ≥ 7.00 | ≤ 7.00 | ≤ 7.00 | > 7.00 | > 7.00 | CN[C@@H](C)C(=O)N[C@H](C(=O)N1CCC[C@H]1CN(CCc1ccccc1)C(=O)C(F)(F)F)[C@@H](C)OCC#CC#CCO[C@H](C)[C@H](NC(=O)[C@H](C)NC)C(=O)N1CCC[C@H]1CN(CCc1ccccc1)C(=O)C(F)(F)F [Compound 1] | – | –
2 | ≥ 6.30 | ≥ 7.00 | ≥ 8.30 | ≥ 7.00 | > 7.00 | > 7.00 | CN[C@@H](C)C(=O)N[C@H](C(=O)N1CCC[C@H]1C(=O)N[C@@H]1CCCc2ccccc21)[C@@H](C)OCC#CC#CCO[C@H](C)[C@H](NC(=O)[C@H](C)NC)C(=O)N1CCC[C@H]1C(=O)N[C@@H]1CCCc2ccccc21 [Compound 23] | superior anti-tumor effects | increasing anti-tumor effect in combination with mitomycin-C with increasing dose
